{"source": "patent US4665058A", "about": "“Compositions and method of treatment for sickle cell anemia” (The University of Kentucky Research Foundation, priority 1985, dated 1987)", "key": {"sickle red blood cells [1]": {"system": "sickle red blood cells", "details": "cited from earlier work"}, "experimental animals": {"system": "experimental animals", "details": "micromolar levels; cited from earlier work"}, "[2]": {"details": "at appropriate levels in the blood stream; cited from earlier work"}, "[3]": {"assay": "Hemolysis of normal human red blood cells (turbidity at 610 nm)", "type": "cell-based", "details": "human, red blood cells, cells 2 hours old, 30 min incubation, approx. 4° C., within 700 sec, n=4", "method": "(§1) Human red blood cells were obtained by venepuncture into Na citrate or EDTA vacutainers. They were used directly or stored in serum at 4° C. for various times. Serum and leucocytes were removed by siphoning and the settled red blood cells were washed once and finally made to a 0.15% suspension with isotonic NaCl containing 5 mM KH2 PO4 (pH 6.2). These cells were kept at 2° C. for selected periods of time during a first incubation. From this point on, all experiments were performed in subdued light to protect the light-sensitive phlorizin benzylazide. The phlorizin benzylazide obtained from the synthesis described above was added at the desired concentrations, and during this variable temperature second incubation (2°-4° C. in presence of phlorizin benzylazide), the turbidity of the cell suspension was monitored at 610 nm with a continuously recording spectrophotometer to measure hemolysis. A relatively constant level of absorbance of light indicates decreased hemolysis occurring at the lower dosage and this was verified by concomitant counting of cells with a hemacytometer. Some typical data are shown in FIG. 1 showing the change in absorbance of light (note axis A) when the drug was added (at zero time).\n(§2) The dose-response curve of phlorizin benzylazide acting as a hemolytic agent of normal cells is shown in FIG. 3 and the following table:\n(§3) In FIG. 3, potency is expressed as the ratio, % hemolysis/t1/2, where t1/2 represents the time (seconds) required to achieve 50% of the total hemolysis produced by the particular concentration of the compound within the time of our measurements (700 sec). The cells used for these experiments were 2 hours old, and subjected to an incubation for 30 minutes before the addition of phlorizin benzylazide and continuing thereafter at approximately 4° C. (n=4). […] Thus, this blood level concentration provides anti-sickling action by reducing the concentration of hemoglobin S with an influx of water and/or salt into the cells. Further, this is accomplished with little or no red blood cell lysis and, therefore, minimum adverse side effects."}, "[4]": {"system": "normal human red blood cells", "assay": "Hemolysis of normal human red blood cells (turbidity at 610 nm)", "type": "cell-based", "details": "for t1/2 (time required to achieve 50% of the total hemolysis): approx. 4° C., n=4", "method": "as §1, §2, §3"}, "human red blood cells": {"system": "human red blood cells", "assay": "Red cell swelling / mean cell volume (Coulter Counter)", "type": "cell-based", "method": "as §1\nIn these experiments (n=2) red cells had been stored in serum for 30 hours, and experienced a first incubation for 60 min at 4° C. and a second incubation with 12.5 μM phlorizin benzylazide at 4° C. for 5 and 10 min. […] The Coulter Counter, an automated instrument which determines the number and volume of cells passing through an analysis chamber, was used to make these measurements."}, "sickle red blood cells [5]": {"system": "sickle red blood cells", "assay": "Inhibition of sickling induced by deoxygenation in vitro (whole blood of sickle cell disease patients, phase microscopy)", "type": "cell-based, human", "details": "12.5 μM, 37° C.", "method": "Whole blood was obtained from several volunteer sickle cell disease patients and was stored for several days at 4° C. […] Instead, whole blood was diluted into pre-warmed (37° C.) isotonic phosphate-buffered saline (± phlorizin benzylazide, 12.5 μM) which was then deoxygenated by continuous passage of an 100% Argon stream (1 liter/min) over a rotating thin film of the suspended cells. Aliquots were periodically taken, without O2 exposure, and fixed in 1% glutaraldehyde. These samples were then examined under phase microscopy for the degree of sickling by counting fields of at least 100 cells using a single blind, experimental protocol.\nThe data shown in FIG. 4 illustrate that without phlorizin benzylazide present, about 35-40% of the cells from these patients assumed the typical sickle shape (only cells having a 3:1, length:width ratio were considered to be sickled); whereas, with the phlorizin benzylazide, the deoxygenation caused a maximum increase of 5% more than the 10% of cells already sickled at zero time. Actually, the effect of phlorizin benzylazide is even more dramatic. […] The 10-15% sickled cells present at zero time are probably the so-called irreversibly sickled cells (ISC)."}, "[6]": {"assay": "Absorption and elimination of tritiated compound in rats (blood tritium after intraperitoneal injection)", "type": "in vivo", "details": "for Cmax: rat approx. 450 g, read-out: peak concentration in the blood", "method": "(§4) An animal study was then conducted to determine the absorption and elimination and characteristics of the phlorizin benzylazide and the resulting level of safety. Three adult rats of approximately 450 grams each were injected intraperitoneally at zero time in 1, 2 and 3 mg doses of tritiated phlorizin benzylazide (875,000 cpm/mg). Thereafter, serial tail blood samples were taken at varying times and analyzed for tritium. Maximal absorption of the compound from the peritoneal compartment was slow (note FIG. 5) and maximum blood level concentrations were obtained only after about 20 hours. The initial very rapid entry and elimination of a small fraction of the radioactivity was probably tritiated H2 O and other radioactive impurities. […] The absorption rate constant was estimated to be 0.07 hr^-1. […] This feature could, of course, offer advantages for therapy in a sickle cell crisis wherein long term effectiveness is desired."}, "[7]": {"assay": "Safety observation in rats (behavior, gross examination, histology)", "type": "in vivo", "method": "as §4"}, "sugar transporter": {"system": "sugar transporter", "assay": "Interaction with the sugar (glucose) transporter of human red blood cells", "type": "biochemical", "source_text": "(§5) From the above, it is clear that a need exists for a safe, effective and clinically useful compound for the treatment of sickle cell anemia. […] After allowing the compound to associate with its specific membrane receptor, activation with light was expected to result in relatively specific, covalent, irreversible labeling of the transporter."}, "[8]": {"system": "normal human red blood cells", "assay": "Initial photoaffinity-labeling experiments: effect on red blood cells before illumination", "type": "cell-based", "details": "isotonic buffer; time and drug dose-dependent", "source_text": "as §5"}, "sickle patients": {"system": "sickle patients", "details": "low sodium diet; cited from earlier work"}, "[9]": {"details": "16 (head: κ M) phlorizin benzylazide"}, "[10]": {"details": "31 (head: κ M) phlorizin benzylazide"}, "[11]": {"details": "62 (head: κ M) phlorizin benzylazide"}, "[12]": {"details": "12.5 μM, 4° C., 5 and 10 min, n=2 (FIG. 2)"}}, "note": "Read-outs that look alike come from different tables or passages of the source. Positions of bridges follow the written chain, without caps; N, C: chain ends. No end group written: not given here.", "data": [{"compound": "CC[C@@]1([C@@H]2O[C@@H]([C@H]3O[C@@](O)(CO)[C@H](C)C[C@@H]3C)C[C@@H]2C)CC[C@H]([C@]2(C)CC[C@]3(C[C@H](O)[C@@H](C)[C@@H]([C@@H](C)[C@@H](OC)[C@H](C)C(=O)O)O3)O2)O1", "note": "[Monensin]", "values": [{"measurement": "deformability of the red blood cell", "setting": "sickle red blood cells [1]", "result": "some improvemement in the deformability of the red blood cell"}, {"measurement": "toxicity", "setting": "experimental animals", "result": "highly toxic"}]}, {"compound": "O=C(CCc1ccc(O)cc1)c1c(O)cc(O)cc1O", "note": "[phloretin]", "values": [{"measurement": "toxic effects", "setting": "[2]", "result": "toxic effects at all sites in the body"}]}, {"compound": "[N-]=[N+]=Nc1ccc(Cc2c(O)cc(O[C@@H]3O[C@H](CO)[C@@H](O)[C@H](O)[C@H]3O)c(C(=O)CCc3ccc(O)cc3)c2O)cc1", "note": "[phlorizin benzylazide]", "values": [{"measurement": "hemolysis at 4 µM", "setting": "[3]; 4 (head: κ M) phlorizin benzylazide", "result": 0, "unit": "%"}, {"measurement": "hemolysis at 8 µM", "setting": "[3]; 8 (head: κ M) phlorizin benzylazide", "result": 0, "unit": "%"}, {"measurement": "hemolysis at 16 µM", "setting": "[3]; [9]", "result": "31 ± 8.6", "unit": "%"}, {"measurement": "hemolysis at 31 µM", "setting": "[3]; [10]", "result": "41 ± 9.6", "unit": "%"}, {"measurement": "hemolysis at 62 µM", "setting": "[3]; [11]", "result": "66 ± 8", "unit": "%"}, {"measurement": "t1/2 (time required to achieve 50% of the total hemolysis)", "setting": "[4]; [9]", "result": 7.5, "unit": "min"}, {"measurement": "t1/2 (time required to achieve 50% of the total hemolysis)", "setting": "[4]; [10]", "result": 4.33, "unit": "min"}, {"measurement": "t1/2 (time required to achieve 50% of the total hemolysis)", "setting": "[4]; [11]", "result": 3.88, "unit": "min"}, {"measurement": "cell lysis", "setting": "[4]; concentrations below 10 μM", "result": "no cell lysis was observed"}, {"measurement": "cell lysis, extent and rate (FIG. 1)", "setting": "[4]; higher vs lower level of phlorizin benzylazide, 2°-4° C.", "result": "a greater percentage of cell lysis (an absorbance of 0.087 represents 100% lysis) but the rate at which the cells burst was much faster"}, {"measurement": "lysis during swelling experiment", "setting": "human red blood cells; [12]", "result": "essentially no lysis"}, {"measurement": "mean cell volume", "setting": "human red blood cells; [12]", "result": "a time dependent increase in mean cell volume"}, {"measurement": "cell swelling", "setting": "human red blood cells; low phlorizin benzylazide levels, approx. 4° C.", "result": "cell swelling occurred"}, {"measurement": "cell shape on deoxygenation", "setting": "sickle red blood cells [5]; 100% Argon", "result": "a uniform spherocytosis was induced in most cells"}, {"measurement": "maximum increase of sickled cells on deoxygenation, over the 10% already sickled at zero time", "setting": "sickle red blood cells [5]; 100% Argon, without compound about 35-40% sickled (FIG. 4)", "result": 5, "unit": "%"}, {"measurement": "hemolysis in the deoxygenation experiment", "setting": "sickle red blood cells [5]; Example 2", "result": "no significant hemolysis"}, {"measurement": "Cmax", "setting": "[6]; intraperitoneal, 1 mg", "result": 2.5, "unit": "µM"}, {"measurement": "Cmax", "setting": "[6]; intraperitoneal, 2 mg", "result": 5.1, "unit": "µM"}, {"measurement": "Cmax", "setting": "[6]; intraperitoneal, 3 mg", "result": 6.3, "unit": "µM"}, {"measurement": "elimination process", "setting": "[6]; rat, intraperitoneal", "result": "first order process"}, {"measurement": "mean half life (elimination)", "setting": "[6]; rat, intraperitoneal", "result": 75, "unit": "h"}, {"measurement": "maximal absorption from the peritoneal compartment", "setting": "[6]; rat, intraperitoneal (FIG. 5)", "result": "slow"}, {"measurement": "time of maximum blood level concentration", "setting": "[6]; rat, intraperitoneal, 1, 2 and 3 mg", "result": "about 20 hours"}, {"measurement": "absorption rate constant", "setting": "[6]; rat, intraperitoneal, estimated", "result": 0.07, "unit": "h⁻¹"}, {"measurement": "gross examination of all tissues", "setting": "[7]; rat, 1, 2 and 3 mg intraperitoneal", "result": "unremarkable"}, {"measurement": "behavioral abnormalities", "setting": "[7]; rat, 1, 2 and 3 mg intraperitoneal, 5 days (lowest dosage) or 7 weeks", "result": "None of the animals exhibited any unusual behavioral abnormalities"}, {"measurement": "histological examination of the liver and kidney", "setting": "[7]; rat, two older animals (7 weeks)", "result": "no pathology"}, {"measurement": "affinity for the sugar transporter", "setting": "sugar transporter; subdued light", "result": "high, but reversible"}, {"measurement": "inhibition of the transfer mechanism", "setting": "sugar transporter; sugar transporter", "result": "potent inhibitor"}, {"measurement": "effect on red blood cells before illumination", "setting": "[8]", "result": "the red blood cells were found to swell and, in a time and drug dose-dependent manner, burst even in an isotonic buffer"}]}, {"compound": "anti-diuretic hormone: anti-diuretic hormone given to sickle patients on a low sodium diet to reduce plasma Na+-osmolality (CYFQNCPRG-NH2; disulfide 1-6; UniProt P01185 20-28, looked up)", "values": [{"measurement": "clinical success (reduction of plasma Na+ osmolality / cell hemoglobin S concentration)", "setting": "sickle patients", "result": "very limited success"}]}]}
